Data taken from patent US20220230723A1, “Electronically Supervised Administration of a Pharmaceutical Composition” (Celon Pharma S.A., priority 2019, published 2022).
Structures can show the parent of a compound that is named as a salt.

Assays:
[1] = cited from earlier work
[2] = cited from earlier work; remark: listed apart in the source
[3] = cited from earlier work; remark: listed apart in the source
[4] = nebulized saline solution, inhalation; cited from earlier work
[5] = Literature pharmacokinetics after intravenous infusion; type: in vivo; details: human, plasma, 0.2 mg/kg; 0.20 mg/kg 40 minutes intravenous infusion, predicted on the basis of literature data
Method: Administration route with currently expected minimum level of metabolites is an intravenous one. After intravenous infusion of racemic ketamine at 0.5 mg/kg for 40 minutes, the parent drug maintains its systemic concentration about 200 ng/ml for about 40 minutes, afterwards the concentration falls down quickly with a half-period below 2 hours. Simultaneously, norketamine reaches its maximum concentration at the level of 10-20% of ketamine concentration. The percentage of area-under-curve (AUC) norketamine to ketamine is about 20-40%.

NMDA receptor = details: cited from earlier work
[6] = after intravenous infusion of racemic ketamine
[7] = after oral administration of ketamine

In the case of `CNC1(c2ccccc2Cl)CCCCC1=O` (racemic) [ketamine], the “half-period of concentration fall” value ([1]; after intravenous infusion 0.5 mg/kg for 40 minutes) is listed as “below 2 hours”, the “systemic concentration of parent drug” value ([1]; intravenous infusion 0.5 mg/kg for 40 minutes, maintained about 40 minutes) is listed as “about 200 ng/ml” and the bioavailability ([2]; orally administered) is listed as 16-20%. The “share of patients with treatment-resistant depression responsive to treatment” value ([3]; human, in vivo) was “about ⅔”.
For `CN[C@]1(c2ccccc2Cl)CCCCC1=O` [esketamine hydrochloride], the inhaled bioavailability [4] is listed as “reduced due to both dose-independent and dose-dependent impairment of pulmonary uptake”.
For `CN[C@]1(c2ccccc2Cl)CCCCC1=O` [esketamine], the concentration at 40 min [5] is listed as 60 to 100 ng/mL and the antidepressant effects ([3]; TRD patients, 40-minute i.v. infusion of 0.20 mg/kg or 0.40 mg/kg (Singh et al.)) is listed as “rapid onset of robust antidepressant effects”.
In the case of `NC1(c2ccccc2Cl)CCCCC1=O` (stereo not drawn) [norketamine], the “activity on NMDA receptor relative to ketamine” value (NMDA receptor) is listed as “many times less active than ketamine”, the “maximum concentration as % of ketamine concentration” value [1, 6] is listed as 10-20% and the “percentage of AUC norketamine to ketamine” value [1, 6] is listed as 20-40%. The “AUC for norketamine relative to ketamine” value [2, 7] was “exceeding 1000%” and the “norketamine level as % of ketamine level” value [2, 7] was 500-1000%.
